Results from patent publication US20240399360A1, “DEVICES AND METHODS FOR CREATING TRANSCELLULAR PORES” (Georgia Tech Research Corporation, priority 2023, published 2024).
“Also recorded” adds a separate entry of the source.

What was measured:
Type in all cases: cell-based, human
phSC cells [1] = assay: Cell stiffness measurement by atomic force microscopy (AFM)
Procedure: Cell stiffness measurement: SC cells were seeded on coverslips and grown to confluence. An MFD-3D AFM (Asylum Research, Santa Barbara, CA, USA) was used to make stiffness measurements using silicon nitride cantilevers with an attached borosilicate sphere (diameter=10 μm; nominal spring constant=0.1 N/m; Novascan Technologies, Inc., Ames, IA, USA). […] The indentation depth was limited to 400 nm to avoid substrate effects and the tip velocity was adjusted to 800 nm/s to avoid viscous effects^37. 5 measurements/cell were conducted, and at least 5 cells were measured/cell strain. Data from AFM measurements were fitted to the Hertz model to calculate the Young's Modulus of the cells.

phSC cells [2] = assay: Particle-induced transcellular pore formation, fluorescent pore-label assay, cells seeded above microparticles
Procedure: Substrate preparation and cell culture for transcellular pore formation using microparticles: Round cover glasses (12 mm in diameter) were employed for SEM imaging, while 16-well chambered cover glasses (16 wells per cover glass; Invitrogen C37000) were utilized for other experiments. Glass substrates underwent plasma treatment (Harrick Plasma, PDC-32G) for 2 minutes at high RF power and were immediately incubated at 37° C. with 0.5 mg/mL biotinylated gelatin for 24 hours. After three washes with PBS, the cover glasses were incubated with microbial transglutaminase (0.001 unit/mL in 20 mM Tris-HCl and 150 mM NaCl, pH 8; Sigma-Aldrich SAE0159) at 37° C. for 24 hours to crosslink the gelatin coating and enhance phSC cell attachment on the substrate. Following three additional washes with PBS, the cover glasses were UV sterilized in a biosafety cabinet for 1 hour. Carboxyl ferromagnetic particles (4.0-4.9 μm, Spherotech, Inc. CFM-40-10) were vortexed and added to the substrate. The particles were allowed to randomly sink onto the substrate to achieve an approximate density of 1 particle per 1000 μm^2. Non-adherent particles were removed by washing three times with PBS, followed by seeding phSC cells (passage 4-6; 7.5 k cells/cm^2). The cells were then cultured for 2 to 7 hours in DMEM supplemented with 1% FBS and 1×PSG at 37° C. with 5% CO2. The culture time was chosen as the minimum duration necessary for the cells to adopt a spread configuration similar to that observed in situ. Note that this culture time (2 to 7 hours) varied for the tested cell strains. Alternatively, in some experiments, apical-to-basal cell stretching was achieved by adding particles above fully spread cells. High-content screening of transcellular pores: Upon achieving full cell spreading over particles, cells were incubated with the first pore label for 5 minutes, followed by three washes with cell media. Subsequently, cells were either exposed to a magnetic field (as detailed below) or incubated solely with cell media for 10 minutes. Afterward, the cells were incubated with the second pore label (5 μg/mL; Streptavidin, Alexa Fluor 647 Conjugate, Invitrogen S32357) for 5 minutes, all at 37° C. The cells were then immediately washed three times with PBS, fixed with 4% formaldehyde for 15 minutes at room temperature, washed three times with PBS, permeabilized with 0.1% Triton X for 15 minutes, and stained with NucBlue Fixed Cell Ready Probes Reagent (6 drops/mL; Invitrogen R37606) and Alexa Fluor 555 Phalloidin (0.165 μM; Invitrogen R34055) for 1 hour at room temperature. Following these steps, cells were washed three times with PBS, the cover glass was detached from the rest of the 16-well chambered system, mounted on another cover glass using Prolong Gold Antifade Mountant (Invitrogen P10144), and stored in the dark until examination with a Leica DM6 B upright microscope system. Fluorescent and brightfield images were acquired using a 10× objective to generate tile scans for each well. To exclude cells near the well edges, a 4 mm diameter circle was delineated at the center of each image, and the analysis was restricted to the cells within this 4 mm circle. The number of cells, particles beneath cells, and pores were manually counted. Pores incidence rate was quantified as the number of pores associated with particles divided by the number of particles, multiplied by 100. […]

phSC cells [3] = assay: Cell area after treatment (fluorescent images of actin network and nuclei); settings: Y-27632 treatments; nSC74, nSC75, nSC82, nSC89; 2-way ANOVA; FIGS. 12A-12B
Procedure: Treatment with Y-27632 ROCK inhibitor: Cells were seeded above microparticles in 16-well chambered slides in DMEM supplemented with 10% FBS, 1×PSG and allowed to spread for 3.5 hours at 37° C. with 5% CO2. Subsequently, the cells were incubated with 10 μM Y-27632 (Sigma, Y0503) in DMEM supplemented with 1% FBS, 1×PSG for 30 minutes, followed by the first pore label for 5 minutes. Following incubation, the cells were washed, fixed, stained for nuclei and actin filaments, and imaged as described in the section titled “High-content screening of transcellular pores.”

phSC cells [4] = assay: Transcellular pore detection with particles placed on top of cells (apical-to-basal deformation); settings: 10 μM, instead of magnetic field, FIGS. 14A-14B
Procedure: Substrate preparation and cell culture for transcellular pore formation using microparticles: Round cover glasses (12 mm in diameter) were employed for SEM imaging, while 16-well chambered cover glasses (16 wells per cover glass; Invitrogen C37000) were utilized for other experiments. Glass substrates underwent plasma treatment (Harrick Plasma, PDC-32G) for 2 minutes at high RF power and were immediately incubated at 37° C. with 0.5 mg/mL biotinylated gelatin for 24 hours. After three washes with PBS, the cover glasses were incubated with microbial transglutaminase (0.001 unit/mL in 20 mM Tris-HCl and 150 mM NaCl, pH 8; Sigma-Aldrich SAE0159) at 37° C. for 24 hours to crosslink the gelatin coating and enhance phSC cell attachment on the substrate. […]
High-content screening of transcellular pores: Upon achieving full cell spreading over particles, cells were incubated with the first pore label for 5 minutes, followed by three washes with cell media. […] The cells were then immediately washed three times with PBS, fixed with 4% formaldehyde for 15 minutes at room temperature, washed three times with PBS, permeabilized with 0.1% Triton X for 15 minutes, and stained with NucBlue Fixed Cell Ready Probes Reagent (6 drops/mL; Invitrogen R37606) and Alexa Fluor 555 Phalloidin (0.165 μM; Invitrogen R34055) for 1 hour at room temperature. […]

[5] = primary human SC cells, summary statement without cell strain

Row | SMILES | cell stiffness (phSC cells [1]; SIP treatment, nSC74, FIG. 13A) | cell stiffness (phSC cells [1]; SIP treatment, nSC75 and nSC89, FIG. 13A) | pore formation (phSC cells [2]; SIP treatment, nSC74, FIG. 13B) | pore formation (phSC cells [2]; SIP treatment, nSC75 and nSC89, FIG. 13B) | pore formation (phSC cells [2]; [5]) | cell stiffness (phSC cells [1]; Y-27632 treatment, four normal cell strains nSC74, nSC75, nSC82, nSC89, FIG. 6C) | particle-induced pore formation (phSC cells [2]; Y-27632 treatment, four normal cell strains nSC74, nSC75, nSC82, nSC89, FIG. 6D) | cell area (phSC cells [3]) | transcellular pores at particle locations (phSC cells [4])
1 | CCCCCCCCCCCCC/C=C/[C@@H](O)[C@@H](N)COP(=O)(O)O [SIP, sphingosine-1-phosphate] | did not have a significant effect; also recorded: did not affect | increased cell stiffness; also recorded: significant increase | did not have a significant effect; also recorded: did not affect | decreased pore formation; also recorded: decrease | decreased pore formation | – | – | – | –
2 | C[C@@H](N)[C@H]1CC[C@H](C(=O)Nc2ccncc2)CC1 [Y-27632] | – | – | – | – | increased pore formation | decreased cell stiffness | increased pore formation in a dose-dependent manner | did not significantly affect; also recorded: no significant effect | did not induce transcellular pores; also recorded: failed to induce transcellular pores
